Assay results reported in patent publication US20260042764A1, “COMPOSITIONS AND METHODS FOR INHIBITION OF KRAS” (TheRas, Inc., priority 2022, published 2026).

Legend:
[1] = target: T1, Avi-KRAS G12D (1-169) GppNHp/RAF1 RBD-3xFLAG (52-151) (Homo sapiens, UniProt P01116, G12D); assay: Raf1-KRAS G12D-GppNHP disruption HTRF assay (Biological Example 1); assay type: binding
T1 construct: Avi-KRAS G12D (1-169)
Outline: (§1)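 Compounds were tested for disruption of KRAS–RAF1 RBD binding by HTRF in 50 mM Tris pH 7.5, 100 mM NaCl, 5 mM MgCl2, 0.1% BSA, 0.01% Tween, 10% DMSO. Protein mix was incubated 1 h at room temperature with shaking, then detection reagents added for another 1 h. Activity expressed as percent of DMSO control.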

[2] = target: T2, Avi-KRAS G12R (1-169) GppNHp/RAF1 RBD-3xFLAG (52-151) (Homo sapiens, UniProt P01116, G12R); assay: Raf1-KRAS G12R-GppNHP disruption HTRF assay (Biological Example 1); assay type: binding
T2 construct: Avi-KRAS G12R (1-169)
Outline: as §1

[3] = target: T3, Avi-KRAS WT (1-169) GppNHp/RAF1 RBD-3xFLAG (52-151) (Homo sapiens, UniProt P01116); assay: Raf1-KRAS WT-GppNHP disruption HTRF assay (Biological Example 1); assay type: binding
T3 construct: Avi-KRAS WT (1-169)
Outline: as §1

GP2d cells (KRAS G12D) = assay: Cell-based pERK HTRF assay in GP2d cell (Biological Example 2); settings: GP2d (KRAS G12D) cells
Outline: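 60 min compound, 0.25% DMSO, 9-pt half-log curve from 1 μM or 100 nM; DMEM/10% FBS.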

[4] = target: T4, Avi-KRAS G12V (2-169) GTP/RAF1 RBD-3xFLAG (51-131) (Homo sapiens, UniProt P01116, G12V); assay: Raf1-KRAS G12V-GTP disruption HTRF assay (Biological Example 3); assay type: binding; settings: KRAS G12V, GTP-loaded
T4 construct: Avi-KRAS G12V (2-169)
Outline: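 Each KRAS-GTP/RAF1 RBD complex at 50 nM, with 75 nM 3xFLAG-RAF1 RBD (51-131)-Avi, in 50 mM Tris pH 7.5, 100 mM NaCl, 5 mM MgCl2, 0.1% BSA, 0.01% Tween 20, 10% DMSO. Compounds titrated from 30 μM, 10-point 3x series; 1 h at room temperature with shaking. HTRF read, activity as percent of DMSO.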

[5] = KRAS G12D, GppNHp-loaded, class symbols
[6] = KRAS G12R, GppNHp-loaded, class symbols
[7] = KRAS WT, GppNHp-loaded, class symbols
[8] = KRAS G12D, GppNHp-loaded, Table 11
[9] = KRAS G12R, GppNHp-loaded, Table 11
[10] = KRAS WT, GppNHp-loaded, Table 11

T3 sequence (P01116 1-169 isoform P01116-2): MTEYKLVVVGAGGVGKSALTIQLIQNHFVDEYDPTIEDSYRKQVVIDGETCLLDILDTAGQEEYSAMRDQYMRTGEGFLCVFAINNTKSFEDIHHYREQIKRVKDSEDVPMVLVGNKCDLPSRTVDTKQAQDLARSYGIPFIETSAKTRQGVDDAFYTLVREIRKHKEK
T2 sequence (P01116 1-169 isoform P01116-2 G12R): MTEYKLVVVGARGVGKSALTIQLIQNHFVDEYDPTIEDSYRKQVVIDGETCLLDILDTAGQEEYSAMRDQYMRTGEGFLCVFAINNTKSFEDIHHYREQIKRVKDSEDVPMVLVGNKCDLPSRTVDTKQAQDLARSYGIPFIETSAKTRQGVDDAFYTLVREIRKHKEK
T1 sequence (P01116 1-169 isoform P01116-2 G12D): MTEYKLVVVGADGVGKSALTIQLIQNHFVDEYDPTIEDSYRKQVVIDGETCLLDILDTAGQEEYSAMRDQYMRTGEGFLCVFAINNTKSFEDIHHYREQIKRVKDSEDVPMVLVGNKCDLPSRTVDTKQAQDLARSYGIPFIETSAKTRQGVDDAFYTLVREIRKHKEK
T4 sequence (P01116 2-169 isoform P01116-2 G12V): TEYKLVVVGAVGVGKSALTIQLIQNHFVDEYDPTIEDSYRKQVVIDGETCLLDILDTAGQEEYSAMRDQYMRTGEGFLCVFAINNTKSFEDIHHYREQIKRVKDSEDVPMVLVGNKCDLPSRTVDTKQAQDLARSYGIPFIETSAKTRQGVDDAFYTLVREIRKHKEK

CCN(c1nc(OC[C@@]23CCCN2C[C@H](F)C3)nc2c(F)c(-c3ccc(F)c4sc(N)c(C#N)c34)c(C(F)(F)F)cc12)[C@H]1C[C@H](C)N(C(=O)N2CC(OC)C2)C1 (atropisomer, axis not shown) [Compound 764]
IC50 [1, 5]: < 100 nM
IC50 [2, 6]: < 100 nM
IC50 [3, 7]: < 100 nM
IC50 (GP2d cells (KRAS G12D); GP2d): < 100 nM
IC50 (GP2d cells (KRAS G12D); GP2d, pERK HTRF, class symbols): < 100 nM
IC50 [4]: ≤ 100 nM

CCN(c1nc(OC[C@@]23CCCN2C[C@H](F)C3)nc2c(F)c(-c3ccc(F)c4sc(N)c(C#N)c34)c(C(F)(F)F)cc12)[C@H]1C[C@H]2CCC(=O)N2C1 (atropisomer, axis not shown; (aR)) [Compound 573, 2-amino-4-((S)-4-(ethyl((2S,7aR)-5-oxohexahydro-1H-pyrrolizin-2-yl)amino)-8-fluoro-2-(((2R,7aS)-2-fluorotetrahydro-1H-pyrrolizin-7a(5H)-yl)methoxy)-6-(trifluoromethyl)quinazolin-7-yl)-7-fluorobenzo[b]thiophene-3-carbonitrile]
IC50 [1, 5]: < 100 nM
IC50 [2, 6]: < 100 nM
IC50 [3, 7]: < 100 nM
IC50 (GP2d cells (KRAS G12D); GP2d): < 100 nM
IC50 (GP2d cells (KRAS G12D); GP2d, pERK HTRF, class symbols): < 100 nM
IC50 [4]: ≤ 100 nM

Cc1c(C(=O)N(C)C)nn2c1CN(c1nc(OC[C@@]34CCCN3C[C@H](F)C4)nc3c(F)c(-c4ccc(F)c5sc(N)c(C#N)c45)c(C(F)(F)F)cc13)CC2 (atropisomer, axis not shown; (aS)) [Compound 590, 5-((S)-7-(2-amino-3-cyano-7-fluorobenzo[b]thiophen-4-yl)-8-fluoro-2-(((2R,7aS)-2-fluorotetrahydro-1H-pyrrolizin-7a(5H)-yl)methoxy)-6-(trifluoromethyl)quinazolin-4-yl)-N,N,3-trimethyl-4,5,6,7-tetrahydropyrazolo[1,5-a]pyrazine-2-carboxamide]
IC50 [1, 5]: < 100 nM
IC50 [2, 6]: < 100 nM
IC50 [3, 7]: < 100 nM
IC50 (GP2d cells (KRAS G12D)): < 100 nM
IC50 (GP2d cells (KRAS G12D); GP2d, pERK HTRF, class symbols): < 100 nM
IC50 [4]: 100 to 1000 nM

CCN(c1nc(OC[C@@]23CCCN2C[C@H](F)C3)nc2c(F)c(-c3ccc(F)c4sc(N)c(C#N)c34)c(C(F)(F)F)cc12)[C@H]1CC(=O)N2CCC[C@@H]12 (atropisomer, axis not shown; (aS)) [Compound 697, 2-amino-4-((S)-4-(ethyl((1S,7aS)-3-oxohexahydro-1H-pyrrolizin-1-yl)amino)-8-fluoro-2-(((2R,7aS)-2-fluorotetrahydro-1H-pyrrolizin-7a(5H)-yl)methoxy)-6-(trifluoromethyl)quinazolin-7-yl)-7-fluorobenzo[b]thiophene-3-carbonitrile]
IC50 [1, 5]: < 100 nM
IC50 [2, 6]: < 100 nM
IC50 [3, 7]: < 100 nM
IC50 (GP2d cells (KRAS G12D); GP2d): < 100 nM
IC50 (GP2d cells (KRAS G12D); GP2d, pERK HTRF, class symbols): < 100 nM
IC50 [4]: ≤ 100 nM

CC(=O)N1CC[C@@H](N(C)c2nc(OC[C@@]34CCCN3C[C@H](F)C4)nc3c(F)c(-c4ccc(F)c5sc(N)c(C#N)c45)c(C(F)(F)F)cc23)[C@H]1C (single isomer, unassigned) [Compound 193]
IC50 [1, 8]: < 100 nM
IC50 [2, 9]: < 100 nM
IC50 [3, 10]: < 100 nM
IC50 (GP2d cells (KRAS G12D); pERK HTRF): < 100 nM
IC50 (GP2d cells (KRAS G12D); GP2d): < 100 nM
IC50 [4]: 100 to 1000 nM

N#Cc1c(N)sc2c(F)ccc(-c3c(C(F)(F)F)cc4c(N5CCOCC5)nc(OC[C@@]56CCCN5C[C@H](F)C6)nc4c3F)c12 (single isomer, unassigned) [Compound 198]
IC50 [1, 8]: 100 to 1000 nM
IC50 [2, 9]: 100 to 1000 nM
IC50 [3, 10]: 100 to 1000 nM
IC50 (GP2d cells (KRAS G12D); pERK HTRF): < 100 nM
IC50 (GP2d cells (KRAS G12D); GP2d): < 100 nM
IC50 [4]: 100 to 1000 nM

N#Cc1c(N)sc2c(F)ccc(-c3c(C(F)(F)F)cc4c(N5CC6CC(C5)O6)nc(OC[C@@]56CCCN5C[C@H](F)C6)nc4c3F)c12 (single isomer, unassigned) [Compound 275]
IC50 [1, 8]: 100 to 1000 nM
IC50 [2, 9]: 100 to 1000 nM
IC50 [3, 10]: 100 to 1000 nM
IC50 (GP2d cells (KRAS G12D); pERK HTRF): < 100 nM
IC50 (GP2d cells (KRAS G12D); GP2d): < 100 nM
IC50 [4]: 100 to 1000 nM

N#Cc1c(N)sc2c(F)ccc(-c3c(C(F)(F)F)cc4c(N5C[C@H]6C[C@@H]5CO6)nc(OC[C@@]56CCCN5C[C@H](F)C6)nc4c3F)c12 (single isomer, unassigned) [Compound 287]
IC50 ([1]; KRAS G12D-GppNHp/RAF1 RBD HTRF): 100 to 1000 nM
IC50 ([2]; KRAS G12R-GppNHp/RAF1 RBD HTRF): 100 to 1000 nM
IC50 ([3]; KRAS WT-GppNHp/RAF1 RBD HTRF): 100 to 1000 nM
IC50 (GP2d cells (KRAS G12D); GP2d): < 100 nM
IC50 (GP2d cells (KRAS G12D); GP2d, pERK HTRF): < 100 nM
IC50 [4]: 100 to 1000 nM

CN(c1nc(OC[C@@]23CCCN2C[C@H](F)C3)nc2c(F)c(-c3ccc(F)c4sc(N)c(C#N)c34)c(C(F)(F)F)cc12)[C@H]1C[C@@H](O)C1 [Compound 19, 2-amino-7-fluoro-4-((S)-8-fluoro-2-(((2R,7aS)-2-fluorotetrahydro-1H-pyrrolizin-7a(5H)-yl)methoxy)-4-(((1s,3R)-3-hydroxycyclobutyl)(methyl)amino)-6-(trifluoromethyl)quinazolin-7-yl)benzo[b]thiophene-3-carbonitrile]
IC50 [1, 8]: < 100 nM
IC50 [2, 9]: < 100 nM
IC50 [3, 10]: < 100 nM
IC50 (GP2d cells (KRAS G12D)): < 100 nM
IC50 (GP2d cells (KRAS G12D); pERK HTRF): < 100 nM
IC50 [4]: 100 to 1000 nM

N#Cc1c(N)sc2c(F)ccc(-c3c(C(F)(F)F)cc4c(N5CC6CC(C5)O6)nc(OC[C@@]56CCCN5C[C@H](F)C6)nc4c3F)c12 [Compound 145]
IC50 [1, 8]: 100 to 1000 nM
IC50 [2, 9]: 100 to 1000 nM
IC50 [3, 10]: 100 to 1000 nM
IC50 (GP2d cells (KRAS G12D); GP2d): < 100 nM
IC50 (GP2d cells (KRAS G12D); GP2d, pERK HTRF): < 100 nM
IC50 [4]: 1000 to 10000 nM

N#Cc1c(N)sc2c(F)ccc(-c3c(C(F)(F)F)cc4c(N5CCCOCC5)nc(OC[C@@]56CCCN5C[C@H](F)C6)nc4c3F)c12 [Compound 232]
IC50 [1, 8]: < 100 nM
IC50 [2, 9]: 100 to 1000 nM
IC50 [3, 10]: 100 to 1000 nM
IC50 (GP2d cells (KRAS G12D); GP2d): < 100 nM
IC50 (GP2d cells (KRAS G12D); GP2d, pERK HTRF): < 100 nM
IC50 [4]: 100 to 1000 nM

N#Cc1c(N)sc2c(F)ccc(-c3c(C(F)(F)F)cc4c(N5CCNS(=O)(=O)CC5)nc(OC[C@@]56CCCN5C[C@H](F)C6)nc4c3F)c12 [Compound 245]
IC50 [1, 8]: < 100 nM
IC50 [2, 9]: < 100 nM
IC50 [3, 10]: < 100 nM
IC50 (GP2d cells (KRAS G12D); GP2d): < 100 nM
IC50 (GP2d cells (KRAS G12D); GP2d, pERK HTRF): < 100 nM
IC50 [4]: 100 to 1000 nM

N#Cc1c(N)sc2c(F)ccc(-c3c(C(F)(F)F)cc4c(N5C[C@H]6C[C@@H]5CO6)nc(OC[C@@]56CCCN5C[C@H](F)C6)nc4c3F)c12 [Compound 253, 2-amino-7-fluoro-4-[8-fluoro-2-[[(2R,8S)-2-fluoro-1,2,3,5,6,7-hexahydropyrrolizin-8-yl]methoxy]-4-[(1R,4R)-2-oxa-5-azabicyclo[2.2.1]heptan-5-yl]-6-(trifluoromethyl)quinazolin-7-yl]benzothiophene-3-carbonitrile]
IC50 [1, 8]: 100 to 1000 nM
IC50 [2, 9]: 100 to 1000 nM
IC50 [3, 10]: 100 to 1000 nM
IC50 (GP2d cells (KRAS G12D); GP2d): < 100 nM
IC50 (GP2d cells (KRAS G12D); GP2d, pERK HTRF): < 100 nM
IC50 [4]: 1000 to 10000 nM

CCN(c1nc(OC[C@@]23CCCN2C[C@H](F)C3)nc2c(F)c(-c3ccc(F)c4sc(N)c(C#N)c34)c(C(F)(F)F)cc12)[C@H]1CCN(C(C)=O)C1 [Compound 262]
IC50 [1, 8]: < 100 nM
IC50 [2, 9]: < 100 nM
IC50 [3, 10]: < 100 nM
IC50 (GP2d cells (KRAS G12D); GP2d): < 100 nM
IC50 (GP2d cells (KRAS G12D); GP2d, pERK HTRF): < 100 nM
IC50 [4]: 100 to 1000 nM

CCN(c1nc(OC[C@@]23CCCN2C[C@H](F)C3)nc2c(F)c(-c3ccc(F)c4sc(N)c(C#N)c34)c(C(F)(F)F)cc12)[C@@H]1CCN(C(C)=O)C1 [Compound 268]
IC50 [1, 8]: < 100 nM
IC50 [2, 9]: < 100 nM
IC50 [3, 10]: < 100 nM
IC50 (GP2d cells (KRAS G12D); GP2d): < 100 nM
IC50 (GP2d cells (KRAS G12D); GP2d, pERK HTRF): < 100 nM
IC50 [4]: 100 to 1000 nM
